Experimental data as given in patent US20230086702A1, “SUBSTITUTED 2-AMINO-PYRAZOLYL-[1,2,4]TRIAZOLO[1,5A]PYRIDINE DERIVATIVES AND USE THEREOF” (The Johns Hopkins University, priority 2019, published 2023).

Tests used:
[1] = molecular target: T1, LZK (Homo sapiens, UniProt O43283); test: LZK biochemical assay (TR-FRET, MKK7 phosphorylation)
T1 construct: 10 nM LZK, catalytic domain, Carna Biosiences in assay buffer; purchased Carna Biosciences ('Carna Biosiences' [sic])
T1 sequence (O43283 168-409 limits assumed): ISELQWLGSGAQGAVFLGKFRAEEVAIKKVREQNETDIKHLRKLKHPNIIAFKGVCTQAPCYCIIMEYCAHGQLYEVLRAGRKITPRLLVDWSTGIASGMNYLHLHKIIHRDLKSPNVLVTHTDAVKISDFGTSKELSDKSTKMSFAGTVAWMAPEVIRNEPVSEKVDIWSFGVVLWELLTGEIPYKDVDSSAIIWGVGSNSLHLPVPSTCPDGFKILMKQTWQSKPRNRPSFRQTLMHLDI
Protocol: (§1) LZK assay is a biochemical assay format designed to screen for inhibitors of LZK. Enzymatic activity of LZK is measured by monitoring phosphorylation of the physiological substrate MKK7 (MAP2K7, Dual specificity mitogen-activated protein kinase kinase 7). Phosphorylation is detected by a TR-FRET system whereby His-tagged MKK7 is labeled by a XL665-labeled anti-His antibody (FRET acceptor, emission 665 nm). LZK phosphorylates MKK7 at T275/S277 which is detected by an Eu-labeled anti-phospho-MKK7 (T275/S277) antibody (FRET donor, excitation 340 nm). Phosphorylation of MKK7 results in an increased TR-FRET signal (Ratio XL665-channel/Eu-channel) and inhibition of enzymatic activity of LZK decreases the TR-FRET signal.
(§2) Assay Protocol for 384 low volume MTP format: 1 μl of test compound is pipetted into test plate; +5 μl LZK solution (10 nM LZK, catalytic domain, Carna Biosiences in assay buffer); +5 μl substrate solution (15 nM MKK7, LDB; 15 μM ATP, in assay buffer); 90 min incubation at RT; +5 μl detection mix (20 nM XL665-labeled anti-His antibody, Cisbio; 0.4 nM Eu-labeled anti-phospho-MKK7 (T275/S277), Cisbio/Millipore in detection buffer); 16 h incubation at 32° C.; endpoint measurement BMG (HTRF).
(§3) All indicated concentrations final concentrations.
(§4) Assay buffer (384 format): 50 mM Hepes pH 7.5, 10 mM MgCl2, 1 mM EGTA, 1 mM DTT, 0.01% Triton X-100, 0.01% BSA, 1:500 Smart Block.
(§5) Detection buffer: 25 mM Tris/HCl pH 7.5, 100 mM EDTA, 100 mM NaCl, 200 mM KF, 0.01% Tween 20, 1:500 Smart Block.

[2] = molecular target: T2, DLK (Homo sapiens, UniProt Q12852); test: DLK biochemical assay (TR-FRET, MKK7 phosphorylation)
T2 construct: 10 nM DLK, catalytic domain, Carna Biosiences; purchased Carna Biosciences ('Carna Biosiences' [sic])
T2 sequence (Q12852 125-366 limits assumed): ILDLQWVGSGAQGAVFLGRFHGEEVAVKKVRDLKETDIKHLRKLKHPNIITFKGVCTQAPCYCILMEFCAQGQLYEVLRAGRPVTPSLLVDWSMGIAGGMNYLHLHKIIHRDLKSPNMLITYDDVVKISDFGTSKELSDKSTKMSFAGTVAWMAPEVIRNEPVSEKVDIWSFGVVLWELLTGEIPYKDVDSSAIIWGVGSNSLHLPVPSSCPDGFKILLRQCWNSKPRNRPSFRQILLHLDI
Protocol: as §1, with “DLK assay” for “LZK assay”, “of DLK.” for “of LZK.”, “of DLK” for “of LZK”, “nm). DLK” for “nm). LZK”, “at T275/S277,” for “at T275/S277”
Assay Protocol for 1536 MTP format: test compounds are predispensed (60 nl) in test plates; +3 μl DLK solution (10 nM DLK, catalytic domain, Carna Biosiences, 0.6 mM DTT in assay buffer); +2 μl substrate solution (15 nM MKK7, LDB; 60 μM ATP; 0.4 mM DTT in assay buffer); 90 min incubation at RT; +2 μl detection mix (5 nM XL665-labeled anti-His antibody, Cisbio; 0.1 nM Eu-labeled anti-phospho-MKK7 (T275/S277), Cisbio/Millipore in detection buffer); 16 h incubation at 37° C.; endpoint measurement BMG (HTRF).
as §2, with “test compounds” for “test compound”, “μl DLK” for “μl LZK”, “nM DLK,” for “nM LZK,”, “LDB; 60” for “LDB; 15”, “RT; +9” for “RT; +5”, “at 4°” for “at 32°”
as §3, §4, §5

CCC(c1ccc(N2CCOCC2)cc1)n1cc(-c2cc(-c3cnn(CC(F)(F)F)c3)c3nc(N)nn3c2)cn1 (racemic) [II-102, 6-(1-{1-[4-(Morpholin-4-yl)phenyl]propyl}-1H-pyrazol-4-yl)-8-[1-(2,2,2-trifluoroethyl)-1H-pyrazol-4-yl][1,2,4]triazolo[1,5-a]pyridin-2-amine]
IC50 [1]: 140 nM
IC50 [2]: 5.7 nM

CCC(c1ccc(C(F)F)nc1)n1cc(-c2cc(-c3cnn(CC(F)(F)F)c3)c3nc(N)nn3c2)cn1 (racemic) [II-105, 6-(1-{1-[6-(Difluoromethyl)pyridin-3-yl]propyl}-1H-pyrazol-4-yl)-8-[1-(2,2,2-trifluoroethyl)-1H-pyrazol-4-yl][1,2,4]triazolo[1,5-a]pyridin-2-amine]
IC50 [1]: 42 nM
IC50 [2]: 9.4 nM

CCC(c1ccc(C(F)(F)F)nc1)n1cc(-c2cc(-c3cnn(CC(F)F)c3)c3nc(N)nn3c2)cn1 (racemic) [II-108, 8-[1-(2,2-Difluoroethyl)-1H-pyrazol-4-yl]-6-(1-{1-[6-(trifluoromethyl)pyridin-3-yl]propyl}-1H-pyrazol-4-yl)[1,2,4]triazolo[1,5-a]pyridin-2-amine]
IC50 [1]: 37 nM
IC50 [2]: 6.3 nM

CCC(c1ccc(C(F)(F)F)nc1)n1cc(-c2cc(-c3cnn(CC(F)(F)F)c3)c3nc(N)nn3c2)cn1 (racemic) [II-111, 8-[1-(2,2,2-trifluoroethyl)-1H-pyrazol-4-yl]-6-(1-{1-[6-(trifluoromethyl)pyridin-3-yl]propyl}-1H-pyrazol-4-yl)[1,2,4]triazolo[1,5-a]pyridin-2-amine]
IC50 [1]: 34 nM
IC50 [2]: 14 nM

CCC(c1ccc(OC(F)(F)F)nc1)n1cc(-c2cc(-c3cnn(CC(F)(F)F)c3)n3nc(N)nc3c2)cn1 (racemic) [II-114, 5-[1-(2,2,2-Trifluoroethyl)-1H-pyrazol-4-yl]-7-(1-{1-[6-(trifluoromethoxy)pyridin-3-yl]propyl}-1H-pyrazol-4-yl)[1,2,4]triazolo[1,5-a]pyridin-2-amine]
IC50 [1]: 42 nM
IC50 [2]: 46 nM

Nc1nc2c(-c3cnn(CC(F)(F)F)c3)cc(-c3cnn(C(c4ccc(C(F)(F)F)nc4)C4CCOCC4)c3)cn2n1 (racemic) [II-117, 6-(1-{Tetrahydro-2H-pyran-4-yl[6-(trifluoromethyl)pyridin-3-yl]methyl}-1H-pyrazol-4-yl)-8-[1-(2,2,2-trifluoroethyl)-1H-pyrazol-4-yl][1,2,4]triazolo[1,5-a]pyridin-2-amine]
IC50 [1]: 29 nM
IC50 [2]: 3.8 nM

Nc1nc2cc(-c3cnn(C(c4ccc(C(F)(F)F)nc4)C4CCOCC4)c3)cc(-c3cn(CC(F)(F)F)c(=O)cn3)n2n1 (racemic) [II-194, 5-[2-Amino-7-(1-{tetrahydro-2H-pyran-4-yl[6-(trifluoromethyl)pyridin-3-yl]methyl}-1H-pyrazol-4-yl)[1,2,4]triazolo[1,5-a]pyridin-5-yl]-1-(2,2,2-trifluoroethyl)pyrazin-2(1H)-one]
IC50 [1]: 17 nM
IC50 [2]: 3.6 nM

CCC(c1ccc(C(F)(F)F)nc1)n1cc(-c2cc(-c3cc(CO)ccc3Cl)c3nc(N)nn3c2)cn1 (single isomer, unassigned) [II-2, {3-[2-Amino-6-(1-{1-[6-(trifluoromethyl)pyridin-3-yl]propyl}-1H-pyrazol-4-yl)[1,2,4]triazolo[1,5-a]pyridin-8-yl]-4-chlorophenyl}methanol]
IC50 [1]: 30 nM
IC50 [2]: 170 nM

CCC(c1ccc(C(F)(F)F)nc1)n1cc(-c2cc(-c3cc(CO)ccc3Cl)c3nc(N)nn3c2)cn1 (single isomer, unassigned) [II-3, {3-[2-Amino-6-(1-{1-[6-(trifluoromethyl)pyridin-3-yl]propyl}-1H-pyrazol-4-yl)[1,2,4]triazolo[1,5-a]pyridin-8-yl]-4-chlorophenyl}methanol]
IC50 [1]: 6.4 nM
IC50 [2]: 12 nM

Nc1nc2c(-c3cc(CO)ccc3Cl)cc(-c3cnn(C(c4ccc(C(F)(F)F)nc4)C4CCOCC4)c3)cn2n1 (single isomer, unassigned) [II-5, {3-[2-Amino-6-(1-{tetrahydro-2H-pyran-4-yl[6-(trifluoromethyl)pyridin-3-yl]methyl}-1H-pyrazol-4-yl)[1,2,4]triazolo[1,5-a]pyridin-8-yl]-4-chlorophenyl}methanol]
IC50 [1]: 1.7 nM
IC50 [2]: 2.3 nM

Nc1nc2c(-c3cc(CO)ccc3Cl)cc(-c3cnn(C(c4ccc(C(F)(F)F)nc4)C4CCOCC4)c3)cn2n1 (single isomer, unassigned) [II-6, {3-[2-Amino-6-(1-{tetrahydro-2H-pyran-4-yl[6-(trifluoromethyl)pyridin-3-yl]methyl}-1H-pyrazol-4-yl)[1,2,4]triazolo[1,5-a]pyridin-8-yl]-4-chlorophenyl}methanol]
IC50 [1]: 6.7 nM
IC50 [2]: 46 nM

CCC(c1ccc(C(F)(F)F)nc1)n1cc(-c2cc(-c3cccc(C(C)(C)O)c3)c3nc(N)nn3c2)cn1 (single isomer, unassigned) [II-8, 2-{3-[2-Amino-6-(1-{1-[6-(trifluoromethyl)pyridin-3-yl]propyl}-1H-pyrazol-4-yl)[1,2,4]triazolo[1,5-a]pyridin-8-yl]phenyl}propan-2-ol]
IC50 [1]: 7.9 nM
IC50 [2]: 3.7 nM

CCC(c1ccc(C(F)(F)F)nc1)n1cc(-c2cc(-c3cccc(C(C)(C)O)c3)c3nc(N)nn3c2)cn1 (single isomer, unassigned) [II-9, 2-{3-[2-Amino-6-(1-{1-[6-(trifluoromethyl)pyridin-3-yl]propyl}-1H-pyrazol-4-yl)[1,2,4]triazolo[1,5-a]pyridin-8-yl]phenyl}propan-2-ol]
IC50 [1]: 2.3 nM
IC50 [2]: 1 nM

CC(C)(O)c1cccc(-c2cc(-c3cnn(C(c4ccc(C(F)(F)F)nc4)C4CCOCC4)c3)cn3nc(N)nc23)c1 (single isomer, unassigned) [II-11, 2-{3-[2-Amino-6-(1-{tetrahydro-2H-pyran-4-yl[6-(trifluoromethyl)pyridin-3-yl]methyl}-1H-pyrazol-4-yl)[1,2,4]triazolo[1,5-a]pyridin-8-yl]phenyl}propan-2-ol]
IC50 [1]: 3 nM
IC50 [2]: 1.4 nM

CC(C)(O)c1cccc(-c2cc(-c3cnn(C(c4ccc(C(F)(F)F)nc4)C4CCOCC4)c3)cn3nc(N)nc23)c1 (single isomer, unassigned) [II-12, 2-{3-[2-Amino-6-(1-{tetrahydro-2H-pyran-4-yl[6-(trifluoromethyl)pyridin-3-yl]methyl}-1H-pyrazol-4-yl)[1,2,4]triazolo[1,5-a]pyridin-8-yl]phenyl}propan-2-ol]
IC50 [1]: 1.2 nM
IC50 [2]: 0.6 nM
